The test has as its target T1, Hepatitis B virus DNA polymerase (Hepatitis B virus genotype D subtype ayw, UniProt P03156).
T1 construct: from tissue; host or cells: Hepatitis B virus isolated from human subjects, lysed
Description: DNA polymerase inhibition. Type of test: biochemical. To be noted: read-out: % Inhibition (DNA polymerase). As to the method:
Overall approach. Hepatitis B viral extracts from human subjects are incubated with radiolabelled nucleotides and an active inhibitor. Percent inhibition is calculated based on the amount of de novo viral nucleic acid synthesized with respect to lamivudine as a positive control and phosphate buffer saline (PBS) as a negative control.
Specific procedure. Isolated Hepatitis B virus was lysed to extract free polymerase enzyme, which is free from contaminating enzymes. A virus extract (25 ml) was added to a reaction mixture comprising dATP, dGTP, dCTP and [^3H]dTTP nucleotides (25 ml). Active inhibitor (3 ml) was added to the mixture comprising virus extract and nucleotides. The resultant mixture was incubated at 37° C. for 24 hours.
A separate negative control experiment was performed in which phosphate buffer saline (PBS, 3 ml) was used instead of the inhibitor (3 ml).
A separate positive control experiment was performed in which a known DNA polymerase inhibitor (3 ml of lamivudine at a concentration 3 mg/ml) was used instead of the tested inhibitor (3 ml).
The reaction was stopped by adding 25 ml EDTA and 25 ml TCA (trichloroacetic acid). The reaction mixture was then spotted on ionic paper (DEAE paper). The paper was washed three times with TCA and then with ethyl alcohol. […] Radioactivity was measured by a liquid scintillation counter (Blue Star). […]

Drawing on patent publication US20110262556A1, “SILVER/WATER, SILVER GELS AND SILVER-BASED COMPOSITIONS; AND METHODS FOR MAKING AND USING THE SAME” (AMERICAN SILVER, LLC, priority 2005, published 2011), this text covers inhibition for one compound.

T1 sequence (P03156 whole entry): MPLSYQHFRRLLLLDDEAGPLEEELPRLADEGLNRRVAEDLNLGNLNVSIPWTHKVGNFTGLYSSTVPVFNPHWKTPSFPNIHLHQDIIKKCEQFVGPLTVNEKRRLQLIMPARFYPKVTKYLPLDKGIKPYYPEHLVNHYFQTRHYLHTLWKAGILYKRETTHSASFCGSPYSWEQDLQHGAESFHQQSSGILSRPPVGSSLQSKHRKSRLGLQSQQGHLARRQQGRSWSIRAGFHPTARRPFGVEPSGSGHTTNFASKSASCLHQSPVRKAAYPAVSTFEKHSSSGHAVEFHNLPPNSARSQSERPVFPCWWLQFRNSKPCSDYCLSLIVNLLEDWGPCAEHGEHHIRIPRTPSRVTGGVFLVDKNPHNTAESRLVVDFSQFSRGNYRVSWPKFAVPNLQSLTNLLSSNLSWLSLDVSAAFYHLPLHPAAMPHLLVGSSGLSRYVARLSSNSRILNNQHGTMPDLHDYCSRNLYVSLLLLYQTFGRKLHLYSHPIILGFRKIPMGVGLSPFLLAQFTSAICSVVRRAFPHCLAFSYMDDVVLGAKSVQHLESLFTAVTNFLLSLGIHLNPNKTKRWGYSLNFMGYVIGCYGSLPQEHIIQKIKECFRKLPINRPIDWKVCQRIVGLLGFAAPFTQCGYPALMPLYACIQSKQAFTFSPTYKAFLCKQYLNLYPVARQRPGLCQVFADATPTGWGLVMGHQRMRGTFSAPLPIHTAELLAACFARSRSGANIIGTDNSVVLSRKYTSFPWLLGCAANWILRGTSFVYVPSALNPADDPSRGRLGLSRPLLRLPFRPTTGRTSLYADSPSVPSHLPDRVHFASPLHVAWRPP

The inhibition is the drop in the measured response relative to a control, in per cent. Consider `Nc1ccn([C@@H]2CS[C@H](CO)O2)c(=O)n1` [lamivudine], for which the inhibition at 3000 µg/mL is 31.3%.
